Assays:
S. aureus (CCUG 1800) = assay: Minimal microbicidal concentration (MMC99) assay, S. aureus; type: cell-based; details: 2 hours; for MMC99 μM in 50% SWF: 50% heat inactivated simulated wound fluid
Procedure: Antimicrobial Activity was Measured as Bactericidal Effect on S. aureus Using Minimal Microbicidal Concentration, MMC99, Assay)
S. aureus (#1800; CCUG, Gothenburg, Sweden) cultured on blood-agar plates [Columbia agar (Oxoid, Basingstoke, UK) supplemented with 5% defibrinated horse blood (National Veterinary Institute (SVA), Uppsala, Sweden)] were transferred to brain heart infusion broth (3.7% BHI; Difco, BD Diagnostics, Franklin Lakes, N.J., USA) and incubated in a shaker at 250 rpm+37° C. over night. The culture was thereafter be diluted 1:10 in fresh BHI broth and incubated for additional two hours to reach log-phase growth. The bacteria were pelleted and suspended in 1% BHI medium (BHI broth diluted 100 times in ultra-pure water) to a concentration of 10^7 bacteria/ml as estimated by measuring optical density at 600 nm. Peptides were serially diluted by two-fold steps from 160 μM to 1.25 μM in 1% BHI medium. The peptides (100 μl) were thereafter incubated with bacteria (5 μl á 10^7 bact./ml) for 2 hours at +37° C. Drops (5 μl) of the suspension were placed on blood agar plates. The blood agar plates were incubated over night at +37° C. The MMC99 values, i.e. the lowest peptide concentration needed to achieve a 99% reduction of viable bacteria, were recorded (Table 3). The concentration of the bacterial suspension used in the assay was confirmed by viable counts on blood agar plates.
S. aureus (#1800; CCUG, Gothenburg, Sweden) cultured on blood-agar plates [Columbia agar (Oxoid, Basingstoke, UK) supplemented with 5% defibrinated horse blood (National Veterinary Institute (SVA), Uppsala, Sweden)] were transferred to brain heart infusion broth (3.7% BHI; Difco, BD Diagnostics, Franklin Lakes, N.J., USA) and incubated in a shaker at 250 rpm+37° C. over night. The culture was thereafter be diluted 1:10 in fresh BHI broth and incubated for additional two hours to reach log-phase growth. The bacteria were pelleted and suspended in 1% BHI medium (BHI broth diluted 100 times in ultra-pure water) to a final concentration of 10^7 bacteria/ml as estimated by measuring optical density at 600 nm.
Peptides were serially diluted by two-fold steps from 400 μM to 0.78 μM in either 1% BHI medium or in 50% heat inactivated simulated wound fluid [SWF, containing 1 part 0.1% peptone (Oxoid, Basingstoke, UK) in saline and 1 part fetal bovine serum, diluted 2 times in ultra-pure water].
The peptides (100 μl) were thereafter incubated with bacteria (5 μl a 10^7 bact./ml) for 2 hours at +37° C. Drops (5 μl) of the suspension were placed on blood agar plates. The blood agar plates were incubated over night at +37° C. The MMC99 values, i.e. the lowest peptide concentration needed to achieve a 99% reduction of viable bacteria were recorded (Table 6). The concentration of the bacterial suspension used in the assay was confirmed by viable counts on blood agar plates.
The antimicrobial effects of the peptides 232 (SEQ ID NO: 78), and 220 (SEQ ID NO:67) were analysed by MMC99 (minimal microbicidal concentration) assay against S. aureus (CCUG 1800), MRSA (CCUG 41879), P. aeruginosa (ATCC 15442), E. coli (CCUG 31246), S. pyogenes (CCUG 4207), P. acnes (CCUG 1794T), S. epidermidis (ATCC12228), K. pneumoniae (ATCC 13883), A. baumannii (ATCC 19606), and C. albicans (ATCC 64549). The peptides were purchased from Biopeptide Company (San Diego, Calif., USA) and Bachem AG (Bubendorf, Switzerland) and results are presented in Table 8A and 8B respectively.
Peptides were serially diluted in two different assay medium, 1% BHI medium (brain-heart infusion medium) or 50% heat inactivated simulated wound fluid (SWF), and thereafter incubated with the microorganisms for 2 hours. Drops of the suspension were placed on blood agar plates. The MMC99 values, i.e. the lowest peptide concentration needed to achieve a 99% reduction of viable microorganisms, were recorded. As presented in Table 8, all the peptides have the ability to kill microorganisms frequently appearing in infections. […]

[1] = tested on: TNF-α production in LPS stimulated THP-1 cells; assay: Inhibition of TNF-α production in LPS stimulated THP-1 cells (ELISA); type: cell-based, human; details: mean relative secretion, basal = 0%; for TNF-α at 4 μM peptide / TNF-α at 10 μM peptide: stimulated = 100%; for TNF-α at 40 μM peptide: LPS-stimulated level without peptide = 100%
Procedure: (§1) After 6 hours of incubation at +37° C., 5% CO2 and in a humid atmosphere, the cell supernatants were collected, centrifuged and kept frozen in −20° C. until analyzed for TNF-α content by ELISA (R&D Systems, Minneapolis, Minn., USA). The results are presented as mean relative secretion (%), with stimulated TNF-α level without peptide added set to 100% and basal secretion set to 0% (Table 2).
as §1, with “incubation,” for “incubation at +37° C., 5% CO2 and in a humid atmosphere,”, “centrifuged,” for “centrifuged”, “5).” for “2).”

[2] = screen 1, 99% reduction of viable bacteria

Sequence | MMC99 μM in 1% BHI medium (S. aureus (CCUG 1800); screen 2) [µM] | MMC99 μM in 50% SWF (S. aureus (CCUG 1800); screen 2) [µM] | TNF-α at 4 μM peptide ([1]; screen 2) [%] | TNF-α at 10 μM peptide ([1]; screen 2) [%] | TNF-α at 40 μM peptide ([1]; screen 2) [%] | MMC99 μM in 1% BHI medium (S. aureus (CCUG 1800); [2]) [µM] | TNF-α at 40 μM peptide ([1]; screen 1) [%]
KKLWRRWWRKVL [Peptide 244] | 12.5 | 50 | 107.7 | 116.7 | 10.7 |  | 
QSEATKLFQWQRNLRKVR [Peptide 115] |  |  |  |  |  | >160 | 119
KRQSLARTFKQWARNLRKVL [Peptide 215] | 6.25 | 25 | 86.6 | 69.6 | 1.3 |  | 
QSEATKRFQWLRNLRKVL [Peptide 119] |  |  |  |  |  | 20 | 10
WCKLWRRLMRKVRR [Peptide 241] | 12.5 | 25 | 92.7 | 57.9 |  |  | 
CFQWQRNMRKVR [Peptide 149] |  |  |  |  |  | 13.3 | 109
FQWQRPIRKVR [Peptide 137] |  |  |  |  |  | >160 | 137
QSLAEKLFQWLRNRRKVR [Peptide 120] |  |  |  |  |  | 10 | 49
FQWQRNIRKIR [Peptide 134] |  |  |  |  |  | 40 | 109
NSLFEKLAQWLRQLRKVR [Peptide 222] | 12.5 | 100 | 89.2 | 65.9 | 32.9 |  | 
QSEATKRFQWLRNLRKVLGP [Peptide 213] | 25 | 200 | 110.3 | 125.5 | 84.4 |  | 
QPEATKCFQWQRNMRKVR [Peptide 104] |  |  |  |  |  | >160 | 132
SEAEKCFQWQRNMRKVR [Peptide 110] |  |  |  |  |  | >160 | 102
QSEATKRFQWLRNLRKVLWW [Peptide 212] | 12.5 | 100 | 90.9 | 85.8 | 25.7 |  | 
QKRATKRFQWLRNLRKVL [Peptide 205] | 12.5 | 50 | 91.5 | 89.5 | 28.3 |  | 
NEADKCFQWQRNMRKVR [Peptide 109] |  |  |  |  |  | 160 | 47
QSEATKLFQWQRNMRKVR [Peptide 112] |  |  |  |  |  | >160 | 101
FQWRPGIRKLR [Peptide 139] |  |  |  |  |  | 45 | 148

Source: patent US20140031296A1, “NEW SYNTHETIC PEPTIDES AND THEIR USE” (PERGAMUM AB, priority 2011, published 2014)
